Laboratory results published in US20090275583A1, “ANTIVIRAL COMPOUNDS AND USE THEREOF” (Myriad Genetics, Incorporated, priority 2006, published 2009).
Like-named read-outs stand apart in the source and are kept apart here.

Assays:
HIV-1NL4-3 = assay: P4-MAGI assay; assay type: cell-based
Outline: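 HeLa-derived CD4+ P4 cells carrying an LTR-driven lacZ were infected with HIV-1NL4-3 at MOI 1 with DEAE-Dextran, then compound added in increasing concentrations right after virus; infection reported as Tat-induced β-galactosidase. TC50 measured by WST-1 in mock-infected cells.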

[1] = test system: HIV-1 laboratory strain, NL4-3; assay: MT-4 cytoprotection assay; assay type: cell-based
Outline: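 MT-4 cells mock- or batch-infected with NL4-3 (MOI 0.0005) for 2 h, washed, then cultured 4 days with increasing compound concentrations. Viability read by WST-1 tetrazolium reduction: cytoprotection in infected cells, toxicity in mock-infected cells.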

[2] = Human immunodeficiency virus 1, 24 h, P4 cells, 24 hour incubation, β-galactosidase expression, read-out: P4-MAGI IC50
[3] = Human immunodeficiency virus 1, text statement, less than about 100 nm, read-out: P4-MAGI assay IC50
[4] = Human immunodeficiency virus 1, NL43, MT4, 96 h, MT-4 cells, four days incubation, WST-1 readout, read-out: MT4 EC50
[5] = Human immunodeficiency virus 1, NL43, less than about 100 nm, read-out: MT-4 assay EC50 (concentration of compound that reduces the virus induced cytopathic effect by 50%)

Compound: C=C(C)[C@@H]1CC[C@]2(C(=O)NCCc3cccc(C(=O)NCCc4cccc(C(=O)O)c4)c3)CC[C@]3(C)C(CCC4[C@@]5(C)CC[C@H](O)C(C)(C)C5CC[C@]43C)C12 (stereo partly shown) [Example 59]
- IC50 (HIV-1NL4-3; [2]): 66.1 nM
- IC50 (HIV-1NL4-3; [3]): < 100 nM
- EC50 [1, 4]: 68 nM
- EC50 [1, 5]: < 100 nM

Compound: C=C(C)[C@@H]1CC[C@]2(C(=O)NCCc3cccc(C(=O)NCc4ccc(OCCCN5CCOCC5)cc4)c3)CC[C@]3(C)C(CCC4[C@@]5(C)CC[C@H](O)C(C)(C)C5CC[C@]43C)C12 (stereo partly shown) [Example 196]
- IC50 (HIV-1NL4-3; [2]): 13 nM
- EC50 [1, 4]: 12.5 nM

Compound: C=C(C)[C@@H]1CC[C@]2(C(=O)NCCc3cccc(C(=O)NCc4cccc(C(=O)O)c4F)c3)CC[C@]3(C)C(CCC4[C@@]5(C)CC[C@H](O)C(C)(C)C5CC[C@]43C)C12 (stereo partly shown) [Example 73]
- IC50 (HIV-1NL4-3; [2]): 16.2 nM
- IC50 (HIV-1NL4-3; [3]): < 100 nM
- EC50 [1, 4]: 1.5 nM
- EC50 [1, 5]: < 100 nM

Compound: C=C(C)[C@@H]1CC[C@]2(C(=O)NCCc3cccc(C(=O)NCc4ccc(N)cc4)c3)CC[C@]3(C)C(CCC4[C@@]5(C)CC[C@H](O)C(C)(C)C5CC[C@]43C)C12 (stereo partly shown) [Example 181]
- IC50 (HIV-1NL4-3; [2]): 19 nM
- EC50 [1, 4]: 28 nM

Compound: C=C(C)[C@@H]1CC[C@]2(C(=O)NCCc3cccc(C(=O)NCc4ccc(C(=O)N[C@H](Cc5c[nH]cn5)C(=O)OC)cc4)c3)CC[C@]3(C)C(CCC4[C@@]5(C)CC[C@H](O)C(C)(C)C5CC[C@]43C)C12 (stereo partly shown) [Example 170]
- IC50 (HIV-1NL4-3; [2]): 10 nM
- EC50 [1, 4]: 5 nM

Compound: C=C(C)[C@@H]1CC[C@]2(C(=O)NCCc3cccc(C(=O)NCc4ccc(OCCCN5CCNCC5)c(C(=O)O)c4)c3)CC[C@]3(C)C(CCC4[C@@]5(C)CC[C@H](O)C(C)(C)C5CC[C@]43C)C12 (stereo partly shown) [Example 245]
- IC50 (HIV-1NL4-3; [2]): 27.4 nM
- EC50 [1, 4]: 35 nM

Compound: C=C(C)[C@@H]1CC[C@]2(C(=O)NCCc3cccc(C(=O)NCc4ccc(C(=O)O)cn4)c3)CC[C@]3(C)C(CCC4[C@@]5(C)CC[C@H](O)C(C)(C)C5CC[C@]43C)C12 (stereo partly shown) [Example 76]
- IC50 (HIV-1NL4-3; [2]): 10.4 nM
- IC50 (HIV-1NL4-3; [3]): < 100 nM
- EC50 [1, 4]: 89 nM
- EC50 [1, 5]: < 100 nM

Compound: C=C(C)[C@@H]1CC[C@]2(C(=O)NCCc3ccc(O)cc3)CC[C@]3(C)C(CCC4[C@@]5(C)CC[C@H](O)C(C)(C)C5CC[C@]43C)C12 (stereo partly shown) [Example 111]
- IC50 (HIV-1NL4-3; [2]): 72.2 nM
- IC50 (HIV-1NL4-3; [3]): < 100 nM
- EC50 [1, 4]: 3800 nM

Compound: C=C(C)[C@@H]1CC[C@]2(C(=O)NCCc3cccc(C(=O)NCc4ccc(C(=O)NCc5ncccc5C(=O)OC)cc4)c3)CC[C@]3(C)C(CCC4[C@@]5(C)CC[C@H](O)C(C)(C)C5CC[C@]43C)C12 (stereo partly shown) [Example 187]
- IC50 (HIV-1NL4-3; [2]): 8 nM
- EC50 [1, 4]: 40 nM

Compound: C=C(C)[C@@H]1CC[C@]2(C(=O)NCCc3cccc(C(=O)NCc4ccc(C(=O)O)cn4)c3)CC[C@]3(C)C(CCC4[C@@]5(C)CCC(=O)C(C)(C)C5CC[C@]43C)C12 (stereo partly shown) [Example 202]
- IC50 (HIV-1NL4-3; [2]): 22.2 nM
- EC50 [1, 4]: 20.5 nM

Compound: C=C(C)[C@@H]1CC[C@]2(C(=O)NCc3cc(C(=O)NCCc4ccc(C(=O)OC)cc4)ccc3F)CC[C@]3(C)C(CCC4[C@@]5(C)CC[C@H](O)C(C)(C)C5CC[C@]43C)C12 (stereo partly shown) [Example 96]
- IC50 (HIV-1NL4-3; [2]): 33 nM
- IC50 (HIV-1NL4-3; [3]): < 100 nM
- EC50 [1, 4]: 3.5 nM
- EC50 [1, 5]: < 100 nM

Compound: C=C(C)[C@@H]1CC[C@]2(C(=O)NCCc3cccc(C(=O)NCc4ccc(O)c(C(=O)OC)c4)c3)CC[C@]3(C)C(CCC4[C@@]5(C)CC[C@H](O)C(C)(C)C5CC[C@]43C)C12 (stereo partly shown) [Example 239]
- IC50 (HIV-1NL4-3; [2]): 32.1 nM
- EC50 [1, 4]: 105 nM

Compound: C=C(C)[C@@H]1CC[C@]2(C(=O)NCCc3cccc(C(=O)N[C@@H](C)c4ccccn4)c3)CC[C@]3(C)C(CCC4[C@@]5(C)CC[C@H](O)C(C)(C)C5CC[C@]43C)C12 (stereo partly shown) [Example 158]
- IC50 (HIV-1NL4-3; [2]): 249 nM
- EC50 [1, 4]: > 10000 nM

Compound: C=C(C)[C@@H]1CC[C@]2(C(=O)NCc3cccc(C(=O)NCc4ccc(OCCCO)c(C(=O)O)c4)c3)CC[C@]3(C)C(CCC4[C@@]5(C)CC[C@H](O)C(C)(C)C5CC[C@]43C)C12 (stereo partly shown) [Example 125]
- IC50 (HIV-1NL4-3; [2]): 42 nM
- IC50 (HIV-1NL4-3; [3]): < 100 nM
- EC50 [1, 4]: 56 nM
- EC50 [1, 5]: < 100 nM

Compound: C=C(C)[C@@H]1CC[C@]2(C(=O)NCc3cccc(C(=O)NCCc4ccc(C(=O)O)s4)c3)CC[C@]3(C)C(CCC4[C@@]5(C)CC[C@H](O)C(C)(C)C5CC[C@]43C)C12 (stereo partly shown) [Example 48]
- IC50 (HIV-1NL4-3; [2]): 29 nM
- IC50 (HIV-1NL4-3; [3]): < 100 nM
- EC50 [1, 4]: 63 nM
- EC50 [1, 5]: < 100 nM

Compound: C/C(=C/C#N)[C@@H]1CC[C@]2(C(=O)NCCc3cccc(C(=O)NCc4ccc(C(=O)O)cn4)c3)CC[C@]3(C)C(CCC4[C@@]5(C)CC[C@H](O)C(C)(C)C5CC[C@]43C)C12 (stereo partly shown) [Example 269]
- IC50 (HIV-1NL4-3; [2]): 11.4 nM
- EC50 [1, 4]: 39 nM

Compound: C=C(C)[C@@H]1CC[C@]2(C(=O)NCCc3cccc(C(=O)NCc4ccc(OCCCn5cncc5C(=O)OC)cc4)c3)CC[C@]3(C)C(CCC4[C@@]5(C)CC[C@H](O)C(C)(C)C5CC[C@]43C)C12 (stereo partly shown) [Example 234]
- IC50 (HIV-1NL4-3; [2]): 18.5 nM
- EC50 [1, 4]: 27 nM

Compound: C=C(C)[C@@H]1CC[C@]2(C(=O)NCCc3cccc(-c4nnc(-c5ccc(C(=O)O)cn5)[nH]4)c3)CC[C@]3(C)C(CCC4[C@@]5(C)CC[C@H](O)C(C)(C)C5CC[C@]43C)C12 (stereo partly shown) [Example 254]
- IC50 (HIV-1NL4-3; [2]): 69 nM
- EC50 [1, 4]: 351 nM

Compound: C=C(C)[C@@H]1CC[C@]2(C(=O)NCc3cccc(C(=O)NCCCCCCC(=O)O)c3)CC[C@]3(C)C(CCC4[C@@]5(C)CC[C@H](O)C(C)(C)C5CC[C@]43C)C12 (stereo partly shown) [Example 2]
- IC50 (HIV-1NL4-3; [2]): 46.7 nM
- IC50 (HIV-1NL4-3; [3]): < 100 nM
- EC50 [1, 4]: 940 nM

Compound: C=C(C)[C@@H]1CC[C@]2(C(=O)NCCc3cccc(C(=O)NCc4cccc(C(=O)OC)n4)c3)CC[C@]3(C)C(CCC4[C@@]5(C)CC[C@H](O)C(C)(C)C5CC[C@]43C)C12 (stereo partly shown) [Example 154]
- IC50 (HIV-1NL4-3; [2]): 34 nM
- EC50 [1, 4]: 8 nM

Compound: C=C(C)[C@@H]1CC[C@]2(C(=O)NCCc3cccc(C(=O)NCc4cccc(C(=O)OC)c4F)c3)CC[C@]3(C)C(CCC4[C@@]5(C)CC[C@H](O)C(C)(C)C5CC[C@]43C)C12 (stereo partly shown) [Example 74]
- IC50 (HIV-1NL4-3; [2]): 27.6 nM
- IC50 (HIV-1NL4-3; [3]): < 100 nM
- EC50 [1, 4]: 0.8 nM
- EC50 [1, 5]: < 100 nM

Compound: C=C(C)[C@@H]1CC[C@]2(C(=O)NCCc3cccc(C(=O)NCCCCC(=O)O)c3)CC[C@]3(C)C(CCC4[C@@]5(C)CC[C@H](O)C(C)(C)C5CC[C@]43C)C12 (stereo partly shown) [Example 56]
- IC50 (HIV-1NL4-3; [2]): 46.7 nM
- IC50 (HIV-1NL4-3; [3]): < 100 nM
- EC50 [1, 4]: 310 nM

Compound: CC(=O)[C@@H]1CC[C@]2(C(=O)NCCc3cccc(C(=O)NCc4ccc(C(=O)O)cc4)c3)CC[C@]3(C)C(CCC4[C@@]5(C)CC[C@H](O)C(C)(C)C5CC[C@]43C)C12 (stereo partly shown) [Example 264]
- IC50 (HIV-1NL4-3; [2]): 29.5 nM
- EC50 [1, 4]: 161 nM

Compound: C=C(C)[C@@H]1CC[C@]2(C(=O)NCc3cccc(C(=O)NCc4cccc(-c5nn[nH]n5)c4)c3)CC[C@]3(C)C(CCC4[C@@]5(C)CC[C@H](O)C(C)(C)C5CC[C@]43C)C12 (stereo partly shown) [Example 21]
- IC50 (HIV-1NL4-3; [2]): 24.8 nM
- EC50 [1, 4]: 180 nM

Compound: C=C(C)[C@@H]1CC[C@]2(C(=O)NCCc3cccc(C(=O)NCc4cccc(COCc5cccc(C(=O)O)c5)c4)c3)CC[C@]3(C)C(CCC4[C@@]5(C)CC[C@H](O)C(C)(C)C5CC[C@]43C)C12 (stereo partly shown) [Example 208]
- IC50 (HIV-1NL4-3; [2]): 28.9 nM
- EC50 [1, 4]: 42.5 nM
